O=C[C@H](O)[C@H](O)[C@H](O)CO
solubility (mole fraction)
Conditions	283.15 K	288.15 K	293.15 K	298.15 K	303.15 K	313.15 K	323.15 K
in acetone	0.00234	–	0.00302	–	0.00509	0.0077	0.0118
in acetonitrile	0.00109	–	0.00144	–	0.0022	0.00357	0.00626
in dichloromethane	0.000102	0.000257	0.000367	0.000402	0.000529	–	–
in ethanol	0.00798	–	0.0121	–	0.0213	0.0394	0.0675
in ethyl acetate	0.000876	–	0.00107	–	0.00162	0.00257	0.0036
in isobutanol	0.00334	–	0.00421	–	0.0063	0.0102	0.0156
in isopropanol	0.00457	–	0.00703	–	0.0117	0.021	0.0426
in methanol	0.0313	0.0457	0.0587	0.0771	0.108	–	–
in n-butanol	0.00388	–	0.00485	–	0.00814	0.0124	0.0201
in n-hexane	3.77e-05	–	7.32e-05	–	0.000101	0.000174	0.000205
in n-propanol	0.00515	–	0.00691	–	0.0112	0.0179	0.0305
in sec-butanol	0.00484	–	0.00567	–	0.00894	0.0152	0.0242

Reference: BigSolDB 2.1
